According to article PMC6539525, “Design, Synthesis, and Mechanism of Dihydroartemisinin–Coumarin Hybrids as Potential Anti-Neuroinflammatory Agents” (Molecules, 2019):
Read-outs that look alike come from different tables or passages of the source.

Columns and labels:
[1] = MTT cytotoxicity in N9 cells; assay type: cell-based, murine; conditions: mouse, N9 microglial cells, cytotoxic activity
Procedure: (§1) The anti-neuroinflammatory activity of DCH was evaluated and then the representative compounds were selected for the further study. […] In addition, in order to exclude the death influence, MTT-IC20 of all the compounds were measured. […] The exact reason was still unclear, but we supposed that it might be related to the homeostasis of cells. The tumor cells actually were always in hypoxia condition, in which DCH could promote the cytotoxic activity against tumor cells. In brief, DCH could reduce the release of NO caused by LPS-induced microglial cells.
(§2) When the adherent cells reached 80% confluence, the culture medium was discarded. The cells were digested by trypsin and collected after centrifugation. The fresh culture medium was gently blown into it to form single-cell suspension. Cell suspension will be diluted to 1.5–3 × 10^4 cells/mL. Each hole of 96-well plates was added 100 μL cell suspension and incubated for 24 h (5% CO2; 37 °C). Then the holes were added different concentrations of tested compounds. The early screening concentration is set to 100 μM, 50 μM, 25 μM, 12.5 μM, and 6.25 μM. Three replicates were made for each concentration of the tested compounds. After the cells were grown for 96h, 20 μL MTT (5 mg/mL) was added to each well and incubated for 4 h. The medium was discarded and each well was added 100 μL DMSO to dissolve the formazan blue. Absorbance was measured at 570 nm with a microplate reader (Synergy-HT, BioTek Instruments, Winooski, VT, USA).
(§3) N9 cells, which were in the logarithmic phase, were incubated for 24 h by adherent culture. Subsequently, the medium was changed to new one without serum. The cells were treated with different concentration of tested compounds. After specific time in the LPS condition, the supernatants were collected and analyzed.

[2] = test system: MDA-MB-231 cells; experiment: MTT cytotoxicity in MDA-MB-231 cells; assay type: cell-based; conditions: Homo sapiens
Procedure: (§4) As the anti-neuroinflammatory agents for cancer patients, all newly synthesized compounds were evaluated in vitro for antitumor activity against human breast cancer cell line MDA-MB-231, colorectal cancer cells HT-29 and HCT-116, and lung cancer cell line A549 by using the standard MTT method, respectively. Doxorubicin (DOX) and DHA were used as the reference standard. Additionally, owing to the rapid proliferation, the tumor cells actually was always in hypoxia condition. Therefore, the in vitro cytotoxicity was evaluated in two different conditions (hypoxia and normoxia).
(§5) After recovery, the cells were cultured in 96-well plates for 24 h at 37 °C in a humidified atmosphere with 95% air and 5% CO2. After treated with different tested compounds, the hypoxia groups were placed in a sealed hypoxia incubator chamber (Stemcell Technologies, Inc., Vancouver, BC, Canada) filled with 5% CO2 and 95% N2 for 24 h, and then transferred to the incubator chamber filled with air for 72 h. On the contrary, the normoxia groups were cultured under air condition for 96h.
(§6) Cancer cells HT-29 (Human Colorectal Adenocarcinoma cell line), MDA-MB-231 (Human Breast Cancer cell line), HCT-116 (Human Colorectal Carcinoma cell line), and A549 (Human Lung Adenocarcinomic cell line) were from ATCC.
as §2
(§7) Hypoxia condition: The cells were treated with different concentration of tested compounds, placed in hypoxia chamber (Catalog Number 27310, Stemcell Technologies, Inc., Vancouver, BC, Canada), and incubated for 24 h ([…]; 37 °C). Then the cells were placed in normoxia condition (5% CO2; 37 °C) and incubated for 72 h.

[3] = test system: HCT-116 cells; experiment: MTT cytotoxicity in HCT-116 cells; assay type: cell-based; conditions: Homo sapiens
Procedure: as §4, §5, §6, §2, §7

[4] = test system: HT-29 cells; experiment: MTT cytotoxicity in HT-29 cells; assay type: cell-based, Human; conditions: Homo sapiens, MTT
Procedure: as §4
After recovery, the cells were cultured in 96-well plates for 24 h at 37 °C in a humidified atmosphere with 95% air and 5% CO2. After treated with different tested compounds, the hypoxia groups were placed in a sealed hypoxia incubator chamber (Stemcell Technologies, Inc., Vancouver, BC, Canada) filled with 5% CO2 and 95% N2 for 24 h, and then transferred to the incubator chamber filled with air for 72 h. […]
as §6
as §2, with “After the cells were grown for 96h, 20 μL MTT (5 mg/mL) was added to each well and incubated for 4 h.” left out, “USA). […]” for “USA).”

[5] = test system: NO release of LPS-induced microglial N9 cells; experiment: Inhibition of NO release in LPS-induced N9 cells (Griess); assay type: cell-based, murine; conditions: Mus musculus, 1 μg/mL LPS for 48 h, NO level in medium
Procedure: as §1, §3
The nitrite levels in medium were determined by Griess reaction. The absorbance was measured at 540 nm using a microplate reader.

[6] = test system: A549 cells; experiment: MTT cytotoxicity in A549 cells; assay type: cell-based; conditions: Homo sapiens
Procedure: as §4, §5, §6, §2, §7

[7] = MDA-MB-231, hypoxia 24 h then normoxia 72 h, read-out: IC50 MDA-MB-231 Hypoxia
[8] = MDA-MB-231, normoxia 96 h, read-out: IC50 MDA-MB-231 Normoxia
[9] = HCT-116, hypoxia 24 h then normoxia 72 h, read-out: IC50 HCT-116 Hypoxia
[10] = HCT-116, normoxia 96 h, read-out: IC50 HCT-116 Normoxia
[11] = HT-29, hypoxia 24 h then normoxia 72 h, read-out: IC50 HT-29 Hypoxia
[12] = HT-29, normoxia 96 h, read-out: IC50 HT-29 Normoxia
[13] = A549, hypoxia 24 h then normoxia 72 h, read-out: IC50 A549 Hypoxia
[14] = A549, normoxia 96 h, read-out: IC50 A549 Normoxia

Structure (SMILES)	IC20 [1]	IC50 [2, 7]	IC50 [2, 8]	IC50 [3, 9]	IC50 [3, 10]	IC50 [4, 11]	IC50 [4, 12]	melting point	IC50 [5]	IC50 [6, 13]	IC50 [6, 14]
C[C@H]1[C@@H](OCc2cn(Cc3cc4ccccc4oc3=O)nn2)O[C@@H]2O[C@@]3(C)CC[C@H]4[C@H](C)CC[C@@H]1[C@@]24OO3 [1a, 3-((4-((10S)-dihydroartemisininoxy)methyl-1H-1,2,3-triazol-1-yl)-methyl)-2H-1-chromen-2-one]	> 10 µM	30.5 µM	65 µM	49.8 µM	48.9 µM	14.3 µM	18.4 µM	73 to 75 °C	1.46 µM	53.9 µM	83.5 µM
C[C@H]1[C@@H](OCc2cn(Cc3cc4cc(Br)ccc4oc3=O)nn2)O[C@@H]2O[C@@]3(C)CC[C@H]4[C@H](C)CC[C@@H]1[C@@]24OO3 [1b, 6-bromo-3-((4-((10S)-dihydroartemisininoxy)methyl-1H-1,2,3-triazol-1-yl)-methyl)-2H-1-chromen-2-one]	> 10 µM	> 100 µM	> 100 µM	> 100 µM	> 100 µM	13.1 µM	21.4 µM	78 to 80 °C	> 10 µM	> 100 µM	> 100 µM
C[C@H]1[C@@H](OCc2cn(Cc3cc4cc(Cl)ccc4oc3=O)nn2)O[C@@H]2O[C@@]3(C)CC[C@H]4[C@H](C)CC[C@@H]1[C@@]24OO3 [1c, 6-chloro-3-((4-((10S)-dihydroartemisininoxy)methyl-1H-1,2,3-triazol-1-yl)-methyl)-2H-1-chromen-2-one]	> 10 µM	32.3 µM	> 100 µM	40.4 µM	60.3 µM	26.4 µM	35.4 µM	93 to 95 °C	5.33 µM	48.7 µM	73.5 µM
C[C@H]1[C@@H](OCc2cn(Cc3cc4cc(Cl)cc(Cl)c4oc3=O)nn2)O[C@@H]2O[C@@]3(C)CC[C@H]4[C@H](C)CC[C@@H]1[C@@]24OO3 [1d, 6,8-dichloro-3-((4-((10S)-dihydroartemisininoxy)methyl-1H-1,2,3-triazol-1-yl)-methyl)-2H-1-chromen-2-one]	> 10 µM	33.9 µM	68.9 µM	48.6 µM	60 µM	13.3 µM	14.9 µM	113 to 115 °C	1.6 µM	45.4 µM	53.3 µM
C[C@H]1[C@@H](OCc2cn(Cc3cc4cc(Br)cc(Br)c4oc3=O)nn2)O[C@@H]2O[C@@]3(C)CC[C@H]4[C@H](C)CC[C@@H]1[C@@]24OO3 [1e, 6,8-dibromo-3-((4-((10S)-dihydroartemisininoxy)methyl-1H-1,2,3-triazol-1-yl)-methyl)-2H-1-chromen-2-one]	> 10 µM	45.5 µM	77.9 µM	> 100 µM	54.5 µM	26.9 µM	15.3 µM	103 to 105 °C	0.48 µM	59.8 µM	> 100 µM
C[C@H]1[C@@H](OCCc2cn(Cc3cc4ccccc4oc3=O)nn2)O[C@@H]2O[C@@]3(C)CC[C@H]4[C@H](C)CC[C@@H]1[C@@]24OO3 [2a, 3-((4-(2-((10S)-dihydroartemisininoxy)ethyl)-1H-1,2,3-triazol-1-yl)-methyl)-2H-1-chromen-2-one]	> 10 µM	> 100 µM	> 100 µM	> 100 µM	> 100 µM	19.4 µM	> 100 µM	143 to 145 °C	0.97 µM	> 100 µM	> 100 µM
Cc1ccc2oc(=O)cc(Cn3cc(CCO[C@H]4O[C@@H]5O[C@@]6(C)CC[C@H]7[C@H](C)CC[C@@H]([C@H]4C)[C@@]57OO6)nn3)c2c1 [4i, 6-methyl-4-((4-(2-((10S)-dihydroartemisininoxy)ethyl)-1H-1,2,3-triazol-1-yl)-methyl)-2H-1-chromen-2-one]	> 10 µM	> 100 µM	> 100 µM	> 100 µM	> 100 µM	39 µM	> 100 µM	–	> 10 µM	> 100 µM	> 100 µM
C[C@H]1[C@@H](OCCn2cc(COc3cc(=O)oc4ccccc34)nn2)O[C@@H]2O[C@@]3(C)CC[C@H]4[C@H](C)CC[C@@H]1[C@@]24OO3 [5j]	> 10 µM	69.4 µM	100 µM	> 100 µM	77.2 µM	12.2 µM	30 µM	–	1.59 µM	> 100 µM	> 100 µM
C[C@H]1[C@@H](O)O[C@@H]2O[C@@]3(C)CC[C@H]4[C@H](C)CC[C@@H]1[C@@]24OO3 [DHA, Dihydroartemisinin]	> 10 µM	45.9 µM	> 100 µM	25.9 µM	10.3 µM	11.7 µM	51.1 µM	–	1.58 µM	> 100 µM	> 100 µM
